From paper PMC4411090, “Activating the Wnt/β-Catenin Pathway for the Treatment of Melanoma – Application of LY2090314, a Novel Selective Inhibitor of Glycogen Synthase Kinase-3” (PLoS ONE, 2015)

Key:
GSK3β = target: T1, GSK3β (Homo sapiens, UniProt P49841); assay: cell-free kinase assay with recombinant enzyme and phosphopeptide substrate; format: biochemical
T1 construct: gene GSK3B; human recombinant

GSK3α = target: T2, GSK3α (Homo sapiens, UniProt P49840); assay: as above; format: biochemical
T2 construct: gene GSK3A; human recombinant
T2 sequence (P49840 2-483): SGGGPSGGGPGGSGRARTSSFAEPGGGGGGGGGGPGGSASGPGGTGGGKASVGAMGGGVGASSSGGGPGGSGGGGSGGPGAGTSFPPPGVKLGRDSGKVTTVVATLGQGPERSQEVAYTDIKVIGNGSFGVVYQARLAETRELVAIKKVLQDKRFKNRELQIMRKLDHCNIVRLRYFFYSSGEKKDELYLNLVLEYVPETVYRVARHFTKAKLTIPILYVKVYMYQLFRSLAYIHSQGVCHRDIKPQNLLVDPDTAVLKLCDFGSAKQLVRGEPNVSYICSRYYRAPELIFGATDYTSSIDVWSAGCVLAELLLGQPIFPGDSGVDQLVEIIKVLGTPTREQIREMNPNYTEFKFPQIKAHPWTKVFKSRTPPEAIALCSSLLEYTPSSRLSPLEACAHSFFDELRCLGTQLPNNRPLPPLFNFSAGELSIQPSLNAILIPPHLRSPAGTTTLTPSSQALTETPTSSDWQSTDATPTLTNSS

T1 sequence (P49841 whole entry): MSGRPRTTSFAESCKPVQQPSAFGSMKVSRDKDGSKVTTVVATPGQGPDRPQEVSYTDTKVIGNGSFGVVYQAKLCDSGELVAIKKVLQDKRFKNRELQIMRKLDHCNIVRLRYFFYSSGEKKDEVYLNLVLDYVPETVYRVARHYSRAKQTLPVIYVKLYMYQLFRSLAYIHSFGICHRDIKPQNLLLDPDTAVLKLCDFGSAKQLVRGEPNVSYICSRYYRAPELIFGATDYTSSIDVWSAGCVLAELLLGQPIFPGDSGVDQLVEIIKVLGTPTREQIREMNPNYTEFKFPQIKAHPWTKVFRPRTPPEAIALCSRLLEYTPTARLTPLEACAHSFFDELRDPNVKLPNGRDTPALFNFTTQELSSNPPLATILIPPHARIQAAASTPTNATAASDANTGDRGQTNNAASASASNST

SMILES: O=C1NC(=O)C(c2cnc3ccccn23)=C1c1cn2c3c(cc(F)cc13)CN(C(=O)N1CCCCC1)CC2 [LY2090314]
- IC50 (GSK3β): 0.9 nM
- IC50 (GSK3α): 1.5 nM
